Test [1] has as its system platelet aggregation in dog PRP. As to the kind of experiment: In-vitro platelet aggregation in PRP (ADP-induced, dog platelet-rich plasma). It counts as cell-based. As to conditions: Canis lupus familiaris, ADP 50 μm final concentration, 37° C., 1 minute preincubation. How it is done: Healthy male or female dogs were fasted for 8 hours prior to drawing blood; then 30 ml whole blood was collected using a butterfly needle and 30 cc plastic syringe with 3 ml of 0.129 M buffered sodium citrate (3.8%). The syringe was rotated carefully as blood was drawn to mix the citrate. Platelet-rich plasma (PRP) was prepared by centrifugation at 975×g for 3.17 minutes at room temperature, allowing the centrifuge to coast to a stop without braking. The PRP was removed from the blood with a plastic pipette and placed in a plastic capped, 50 ml Corning conical sterile centrifuge tube which was held at room temperature. Platelet poor plasma (PPP) was prepared by centrifuging the remaining blood at 2000×g for 15 minutes at room temperature allowing the centrifuge to coast to a stop without braking. The PRP was adjusted with PPP to a count of 2-3×10^8 platelets per ml. 400 μl of the PRP preparation and 50 μl of the compound to be tested or saline were preincubated for 1 minute at 37° C. in a BioData aggregometer (BioData, Horsham, Pa.). 50 μl of adenosine 5'-diphosphate (ADP) (50 μm final concentration) was added to the cuvettes and the aggregation was monitored for 1 minute. All compounds are tested in duplicate. Results are calculated as follows:
Percent of control=[(maximal OD minus initial OD of compound) divided by (maximal OD minus initial OD of control saline)]×100. The % inhibition=100-(percent of control).

Test [2] relates to fibrinogen binding to platelets. As to the kind of experiment: Fibrinogen binding assay (125I-fibrinogen binding to ADP-activated human platelets). The conditions noted are these: ADP 10 μM, 125I-fibrinogen 0.3 μM, 40 min at 37° C. The procedure: Fibrinogen binding was performed essentially as described by Plow et al., Blood 70, 110-115 (1987). Briefly, blood from humans who had not been given any antiplatelet drugs in the previous two weeks was collected into 1/10th volume of CCD buffer (100 mM sodium citrates, 136 mM glucose, pH 6.5). The blood was centrifuged for 3 min at 1000×g and platelet rich plasma was transferred to a plastic tube with a plastic pipet and placed on ice. After 15 minutes, 1/2 volume of ice cold CCD buffer was added and the sample was centrifuged at 900×g for 10 min at 2° C. The supernatant was decanted and the platelet pellet was gently resuspended in 1/2 the original volume of ice cold modified Tyrode's buffer (137 mM NaCl, 2.6 mM KCl, 12 mM NaHCO3, 5.5 mM glucose, 15 mM HEPES, 0.5% BSA, pH 7.4). After incubating for 30 minutes at 37° C., the platelet count was adjusted to 4×10^8 platelets/ml with modified Tyrode's buffer. To test samples (final concentration=1×10^8 platelets/ml) were added in sequence: ADP (10 μM), CaCl2 (2 mM), test compound, and ^125 I-fibrinogen (0.3 μM) to the aforesaid final concentrations in a volume of 200 μ1. […] Specific binding was determined in each test by subtracting from the total binding the amount of ^125 I-fibrinogen bound in the presence of a 60-fold excess of unlabeled fibrinogen. […]

Broadly, the IC50 is the concentration at which inhibition is half-maximal. A higher IC50 goes with lower potency.

For the compound `COC(=O)[C@H](Cc1ccccc1)NC(=O)[C@H](CC(=O)O)NC(=O)CCC(=O)Nc1ccc(C(=N)N)cc1` [Example 1, N-[N-[4-[[4-(aminoiminomethyl)phenyl]-amino]-1,4-dioxobutyl]-L-alpha-aspartyl]-L-phenylalanine, 1-methyl ester], the IC50 in test [1] was 90 nM; in test [2], 48 nM.
Regarding `N=C(N)c1ccc(NC(=O)CCC(=O)N[C@@H](CC(=O)O)C(=O)N[C@@H](Cc2ccccc2)C(=O)O)cc1` [Example 2, N-[N-[4-[[4-(aminoiminomethyl)phenyl]amino]-1,4-dioxobutyl]-L-alpha-aspartyl]-L-phenylalanine], the IC50 in test [1] came out at 80 nM.
The same measure, in the same setting: the result for `N=C(N)c1ccc(N(Cc2ccccc2)C(=O)CCC(=O)N[C@@H](CC(=O)O)C(=O)N[C@@H](Cc2ccccc2)C(=O)O)cc1` [Example 9] reads 350 nM.

(Values after patent publication US5453440A, “Peptide mimics useful as platelet aggregation inhibitors” (G. D. Searle & Co., priority 1993, dated 1995).)
